Results published in patent US4820717A, “Antimicrobial aromatic derivatives substituted by an (omega amino) alkanol group and compositions containing them” (priority 1985, dated 1989).
≈ marks a conversion by molar mass, not a printed value.

Assays:
[1] = tested on: Escherichia Coli CNCM 54125; test: Bactericidal activity (MBC), strain 1; format: cell-based; conditions: 20 min, strain 1, 20 minutes of contact, read-out: Minimum bactericidal concentration (MBC)
From the text: (§1) The bactericidal activity of the products according to the invention has been analyzed on various strains by the method described hereafter:
(§2) A bacterial inoculum is placed in contact with different dilutions of the product to be tested, and this for a limited period of time. At the end of contact, an aliquot part of the mixture bacterial suspension/product is deposited on the surface of an agar culture medium containing an agent neutralizing the antibacterial activity of the product. The bactericidal concentration retained is the smallest concentration of the product from which bacteria stop growing. Said concentration is expressed in μg/ml.
(§3) The bacterial strains selected for the analysis are:
1--Escherichia Coli CNCM 54125;
(§4) The second strain is supported on a Worgel Fergusson medium, the other strains being supported on Tryptic Soy Agar-Difco (TSA) commercialized by Difco.
(§5) After a 24-hour culture period at 37° C., the microbial growth is collected by means of glass beads and of 10 ml of diluent containing 1 g of tryptone and 8.5 g of sodium chloride in 1000 ml of distilled water. The formed suspension is stirred and the percentage of light transmission at 620 nm is measured with a spectrophotometer:
(§6) The bacterial inoculum corresponds to a 1/20th dilution of this bacterial suspension.
(§7) Plates equipped with cupules receive different dilutions of the product to be analyzed. These dilutions are placed in contact with the different bacterial suspensions by means of a multiple-center inoculator. After 20 minutes of contact, aliquot parts are transferred by means of said inoculator on the surface of an agar medium (TSA) in Petri dishes, containing an activity-neutralizing agent, namely 20 g of lubrol W, 25 g of Tween 80 and 2.5 g of sodium thiosulfate in 1000 ml of TSA (Difco). The efficiency of the neutralizing agent is controlled for each product to be analyzed by depositing on the surface of the culture medium an aliquot part of the dilution of the product to be analyzed. After drying, the corresponding inoculum is deposited in the same place. An inoculum control is performed on an agar medium with or without neutralizing agent. Readings are taken after 48 hours of incubation at 37° C.

[2] = tested on: Encapsulated klebsiella pneumoniae R030; test: Bactericidal activity (MBC), strain 2; format: cell-based; conditions: 20 min, strain 2, 20 minutes of contact, read-out: Minimum bactericidal concentration (MBC)
From the text: as §1, §2, §3
2--Encapsulated klebsiella pneumoniae R030;
as §4, §5, §6, §7

[3] = tested on: Pseudomonas aeruginosa CNCM A22; test: Bactericidal activity (MBC), strain 3; format: cell-based; conditions: CNCMA22, 20 min, strain 3, 20 minutes of contact, read-out: Minimum bactericidal concentration (MBC)
From the text: as §1, §2, §3
3--Pseudomonas aeruginosa CNCM A22;
as §4, §5, §6, §7

[4] = tested on: Streptococcus faecalis CNCM 5855; test: Bactericidal activity (MBC), strain 4; format: cell-based; conditions: Enterococcus faecalis, CNCM5855, 20 min; strain 4, 20 minutes of contact; read-out: Minimum bactericidal concentration (MBC)
From the text: as §1, §2, §3
4--Streptococcus faecalis CNCM 5855;
as §4, §5, §6, §7

[5] = tested on: Staphylococcus aureus CNCM 53154; test: Bactericidal activity (MBC), strain 5; format: cell-based; conditions: CNCM53154, 20 min, strain 5, 20 minutes of contact, read-out: Minimum bactericidal concentration (MBC)
From the text: as §1, §2, §3
5--Staphylococcus aureus CNCM 53154.
as §4, §5, §6, §7

[6] = Acute toxicity by oral route in mice; conditions: mouse, in vivo, per os, male CD1 mice, 14 days observation
Method: Acute toxicity was tested by oral route in mice. This test was carried out with male mice of CD1 strain, obtained from the Charles Reever breeding farm. Each batch was composed of 5 animals of body weight varying between 24 and 30 g kept in the same cage. The animals were kept fasting for 6 hours before the treatment. For every test, the product, placed in suspension in a 10% solution of gum arabic, was administered by forcible feeding with an oesophageal probe. Food was then served to the animals 4 hours after the forcible feeding and the animals were kept under observation for a period of 14 days after the administration. During that period, the death rate is recorded for each batch of animals used in the experiment and, wherever possible, the LD50 is determined by the method of J. T. Litchfield and F. Wilcoxon, J. Pharmacol. 1949, 95, 99-113.
The results are given in mg of substance tested per kg of body weight. They are compiled in Table III below.

[7] = tested on: Candida albicans CNCM 1180; test: Antifungal activity (MFC), strain 1; format: cell-based; conditions: 20 min; yeast strain 1; read-out: Minimum fongicidal concentration (MFC)
From the text: as §2, §7
(§8) The antifungal activity of the products according to the invention was also determined with the aforedescribed method.
(§9) The fungal strains selected for the analysis are:
1--Candida albicans CNCM 1180;
(§10) These strains are supported on a Sabouraud Dextrose agar medium commercialized by Difco; the technique used is the same as that used in the analysis of the antibacterial activity. After 48 hours of culture at 37° C., the microbial growth is collected with glass beads and 5 ml of diluent containing 1 g of tryptone and 8.5 g of sodium chloride in 1000 ml of distilled water; 5 ml of the diluent are then added. […] A 1/100th dilution of this suspension, observed between slides under a microscope 40-lens, should show 10 cells per frame, this corresponding to 1,000,000 yeasts per ml.

Candida tropicalis 3834 = test: Antifungal activity (MFC), strain 2; format: cell-based; conditions: 20 min; yeast strain 2; read-out: Minimum fongicidal concentration (MFC)
From the text: as §2, §7, §8, §9
2--Candida tropicalis 3834;
as §10

Candida parakruzei 3918 = test: Antifungal activity (MFC), strain 3; format: cell-based; conditions: 20 min; yeast strain 3; read-out: Minimum fongicidal concentration (MFC)
From the text: as §2, §7, §8, §9
3--Candida parakruzei 3918;
as §10

[8] = tested on: Torulopsis glabrata 072023; test: Antifungal activity (MFC), strain 4; format: cell-based; conditions: 20 min; yeast strain 4; read-out: Minimum fongicidal concentration (MFC)
From the text: as §2, §7, §8, §9, §10

Compound | MBC [1] | MBC [2] | MBC [3] | MBC [4] | MBC [5] | LD50 at 336 h [6] | MFC [7] | MFC (Candida tropicalis 3834) | MFC (Candida parakruzei 3918) | MFC [8]
CCN(CC)CCC(CO)c1cccc2ccccc12.Cl (stereo not drawn) [SR 42 989 A, 4-(N,N-diethylamino)-2-(1-naphthyl)-butanol hydrochloride] | 1500 µg/mL | 1500 µg/mL | 1500 µg/mL | 2000 µg/mL | 1500 µg/mL | 300 to 400 mg/kg | – | – | – | –
CN(C)CCCC(CO)c1cccc2ccccc12 (stereo not drawn) [SR 42 994 A] | 1000 µg/mL (≈ 3890 µM) | 800 µg/mL (≈ 3110 µM) | 1000 µg/mL (≈ 3890 µM) | 1000 µg/mL (≈ 3890 µM) | 1000 µg/mL (≈ 3890 µM) | 750 to 1000 mg/kg | 500 µg/mL (≈ 1940 µM) | 500 µg/mL (≈ 1940 µM) | 500 µg/mL (≈ 1940 µM) | 5000 µg/mL (≈ 19400 µM)
OCC(CCN1CCCC1)c1cccc2ccccc12 (stereo not drawn) [SR 43 063 A] | 2000 µg/mL (≈ 7420 µM) | 1000 µg/mL (≈ 3710 µM) | 1000 µg/mL (≈ 3710 µM) | 2000 µg/mL (≈ 7420 µM) | 1000 µg/mL (≈ 3710 µM) | 300 to 400 mg/kg | – | – | – | –
OCC(CCCN1CCCCC1)c1cccc2ccccc12 (stereo not drawn) [SR 43 087 A] | 1500 µg/mL (≈ 5040 µM) | 1000 µg/mL (≈ 3360 µM) | 800 µg/mL (≈ 2690 µM) | 2000 µg/mL (≈ 6720 µM) | 800 µg/mL (≈ 2690 µM) | – | 1000 µg/mL (≈ 3360 µM) | 1000 µg/mL (≈ 3360 µM) | 1000 µg/mL (≈ 3360 µM) | 5000 µg/mL (≈ 16800 µM)
CC(C)N(CCC(CO)c1cccc2ccccc12)C(C)C (stereo not drawn) [SR 43 121 A] | 1500 µg/mL (≈ 5010 µM) | 1500 µg/mL (≈ 5010 µM) | 1500 µg/mL (≈ 5010 µM) | 800 µg/mL (≈ 2670 µM) | 800 µg/mL (≈ 2670 µM) | 300 to 400 mg/kg | – | – | – | –
OCC(CCN1CCCCCC1)c1cccc2ccccc12 (stereo not drawn) [SR 43 155 A] | 500 µg/mL (≈ 1680 µM) | 500 µg/mL (≈ 1680 µM) | 200 µg/mL (≈ 672 µM) | 500 µg/mL (≈ 1680 µM) | 500 µg/mL (≈ 1680 µM) | < 500 mg/kg | 500 µg/mL (≈ 1680 µM) | 500 µg/mL (≈ 1680 µM) | 500 µg/mL (≈ 1680 µM) | 2000 µg/mL (≈ 6720 µM)
OCC(CCN1CCc2ccccc2C1)c1cccc2ccccc12 (stereo not drawn) [SR 43 247 A] | 300 µg/mL (≈ 905 µM) | 300 µg/mL (≈ 905 µM) | 300 µg/mL (≈ 905 µM) | 300 µg/mL (≈ 905 µM) | 500 µg/mL (≈ 1510 µM) | – | 1000 µg/mL (≈ 3020 µM) | 500 µg/mL (≈ 1510 µM) | 1000 µg/mL (≈ 3020 µM) | 2000 µg/mL (≈ 6030 µM)
CC1CCN(CCC(CO)c2cccc3ccccc23)CC1 (stereo not drawn) [SR 43 382 A] | 5000 µg/mL (≈ 16800 µM) | 2000 µg/mL (≈ 6720 µM) | 2000 µg/mL (≈ 6720 µM) | 5000 µg/mL (≈ 16800 µM) | 2000 µg/mL (≈ 6720 µM) | – | 5000 µg/mL (≈ 16800 µM) | 1000 µg/mL (≈ 3360 µM) | 2000 µg/mL (≈ 6720 µM) | 10000 µg/mL (≈ 33600 µM)
OCC(CCN1CCCCCC1)c1ccc(Cl)c(Cl)c1 (stereo not drawn) [SR 43 803 A] | 400 µg/mL (≈ 1260 µM) | 400 µg/mL (≈ 1260 µM) | 500 µg/mL (≈ 1580 µM) | 400 µg/mL (≈ 1260 µM) | 400 µg/mL (≈ 1260 µM) | – | 1000 µg/mL (≈ 3160 µM) | 500 µg/mL (≈ 1580 µM) | 500 µg/mL (≈ 1580 µM) | 2000 µg/mL (≈ 6320 µM)
CCN(CC)CCCCCCCCCC(CO)c1cccc2ccccc12 (stereo not drawn) [SR 43 826 A] | 50 µg/mL (≈ 135 µM) | 50 µg/mL (≈ 135 µM) | 50 µg/mL (≈ 135 µM) | 50 µg/mL (≈ 135 µM) | 50 µg/mL (≈ 135 µM) | – | 250 µg/mL (≈ 676 µM) | 50 µg/mL (≈ 135 µM) | 50 µg/mL (≈ 135 µM) | 250 µg/mL (≈ 676 µM)
OCC(CCCCCN1CCC(Cc2ccccc2)CC1)c1cccc2ccccc12 (stereo not drawn) [SR 43 941 A] | 50 µg/mL (≈ 120 µM) | 50 µg/mL (≈ 120 µM) | 50 µg/mL (≈ 120 µM) | 50 µg/mL (≈ 120 µM) | 50 µg/mL (≈ 120 µM) | – | 100 µg/mL (≈ 241 µM) | 100 µg/mL (≈ 241 µM) | 250 µg/mL (≈ 602 µM) | 250 µg/mL (≈ 602 µM)
Cl.OCC(CCN1CCC(Cc2ccccc2)CC1)c1ccc(Cl)c(Cl)c1 (stereo not drawn) [SR 43 969 A, 4-(4-benzylpiperidino)-2-(3,4-dichlorophenyl)butanol hydrochloride] | 50 µg/mL | 100 µg/mL | 500 µg/mL | 100 µg/mL | 50 µg/mL | – | 50 µg/mL | 50 µg/mL | 100 µg/mL | 500 µg/mL
OCC(CCN1CCC(Cc2ccccc2)CC1)c1ccc(Cl)cc1Cl (stereo not drawn) [SR 44 027 A] | 50 µg/mL (≈ 127 µM) | 50 µg/mL (≈ 127 µM) | 100 µg/mL (≈ 255 µM) | 100 µg/mL (≈ 255 µM) | 200 µg/mL (≈ 510 µM) | 1000 to 1200 mg/kg | 250 µg/mL (≈ 637 µM) | 250 µg/mL (≈ 637 µM) | 500 µg/mL (≈ 1270 µM) | 250 µg/mL (≈ 637 µM)
OCC(CCN1CCC(Cc2ccccc2)CC1)c1ccc(-c2ccccc2)cc1 (stereo not drawn) [SR 44 029 A] | 10 µg/mL (≈ 25 µM) | 50 µg/mL (≈ 125 µM) | 50 µg/mL (≈ 125 µM) | 50 µg/mL (≈ 125 µM) | 50 µg/mL (≈ 125 µM) | – | 50 µg/mL (≈ 125 µM) | 50 µg/mL (≈ 125 µM) | 50 µg/mL (≈ 125 µM) | 100 µg/mL (≈ 250 µM)
